Measurements reported in the CheMixHub viscosity set.
Several values for one entry are separate records, joined by “and”; a condition that tells them apart may be missing. Equal entries are not always repeated.

Assay: xn = mol fraction of the nth substance listed

COC(=O)c1ccccc1 + COc1ccccc1
viscosity [mPa·s], 100 kPa
Conditions	x1 = 0.0898	x1 = 0.1468	x1 = 0.228	x1 = 0.3145	x1 = 0.4054	x1 = 0.5056	x1 = 0.6161	x1 = 0.7316	x1 = 0.8597
303.15 K	0.974	1.038	1.101	1.187	1.234	1.307	1.391	1.48	1.572
308.15 K	0.894	0.949	1.007	1.086	1.129	1.195	1.272	1.355	1.439
313.15 K	0.8	0.85	0.902	0.972	1.012	1.074	1.144	1.22	1.301

CCCC[n+]1ccn(C)c1.O=[N+]([O-])[O-] + CCO
101 kPa
Conditions	viscosity [mPa·s]
293.15 K, x1 = 0.8	73.11
303.15 K, x1 = 0.6	22.05

CCNCCO + CCCCOCCO
viscosity, 101.33 kPa
Conditions	293.15 K	298.15 K	303.15 K	308.15 K	313.15 K	318.15 K	323.15 K
x1 = 0.1	3.962 mPa·s	3.42 mPa·s	2.977 mPa·s	2.61 mPa·s	2.304 mPa·s	2.046 mPa·s	1.828 mPa·s
x1 = 0.13	3.96 mPa·s	3.42 mPa·s	2.98 mPa·s	2.61 mPa·s	2.3 mPa·s	2.05 mPa·s	1.83 mPa·s
x1 = 0.2	4.804 mPa·s	4.103 mPa·s	3.536 mPa·s	3.07 mPa·s	2.685 mPa·s	2.365 mPa·s	2.096 mPa·s
x1 = 0.36	5.75 mPa·s	4.86 mPa·s	4.15 mPa·s	3.57 mPa·s	3.09 mPa·s	2.7 mPa·s	2.38 mPa·s
x1 = 0.4	5.753 mPa·s	4.86 mPa·s	4.146 mPa·s	3.567 mPa·s	3.094 mPa·s	2.703 mPa·s	2.377 mPa·s
x1 = 0.5	6.822 mPa·s	5.698 mPa·s	4.811 mPa·s	4.101 mPa·s	3.527 mPa·s	3.057 mPa·s	2.67 mPa·s
x1 = 0.57	7.99 mPa·s	6.61 mPa·s	5.53 mPa·s	4.67 mPa·s	3.98 mPa·s	3.43 mPa·s	2.97 mPa·s
x1 = 0.6	7.994 mPa·s	6.608 mPa·s	5.525 mPa·s	4.67 mPa·s	3.984 mPa·s	3.429 mPa·s	2.975 mPa·s
x1 = 0.7	9.303 mPa·s	7.606 mPa·s	6.3 mPa·s	5.278 mPa·s	4.466 mPa·s	3.815 mPa·s	3.288 mPa·s
x1 = 0.8	10.71 mPa·s and 12.33 mPa·s	8.67 mPa·s and 9.873 mPa·s	7.112 mPa·s and 8.025 mPa·s	5.907 mPa·s and 6.61 mPa·s	4.962 mPa·s and 5.51 mPa·s	4.21 mPa·s and 4.644 mPa·s	3.606 mPa·s and 3.953 mPa·s
x1 = 0.9	14.15 mPa·s	11.21 mPa·s	9.023 mPa·s	7.368 mPa·s	6.098 mPa·s	5.103 mPa·s	4.316 mPa·s

CCOC(=O)CCl + Cc1ccc(C)cc1
viscosity [mPa·s], 101.3 kPa
Conditions	x1 = 0.0994	x1 = 0.1995	x1 = 0.3008	x1 = 0.3992	x1 = 0.5001	x1 = 0.601	x1 = 0.6994	x1 = 0.7968	x1 = 0.8943
298.15 K	0.635	0.663	0.699	0.735	0.783	0.832	0.886	0.949	1.017
303.15 K	0.599	0.624	0.656	0.691	0.734	0.778	0.827	0.882	0.945
308.15 K	0.563	0.586	0.615	0.646	0.686	0.726	0.768	0.816	0.874

CCCCOCCO + OCCOCCOCCO
101 kPa
Conditions	viscosity [mPa·s]
293.15 K, x1 = 0.048	36.14
293.15 K, x1 = 0.111	30.89
293.15 K, x1 = 0.1958	25.06
293.15 K, x1 = 0.3023	19.11
293.15 K, x1 = 0.4053	14.62
293.15 K, x1 = 0.4492	12.94
293.15 K, x1 = 0.4988	11.29
293.15 K, x1 = 0.5502	9.833
293.15 K, x1 = 0.5922	8.791
293.15 K, x1 = 0.6915	6.755
293.15 K, x1 = 0.7959	5.249
293.15 K, x1 = 0.8902	4.37
293.15 K, x1 = 0.9457	3.879
298.15 K, x1 = 0.0536	30.5
298.15 K, x1 = 0.1049	27.17
298.15 K, x1 = 0.2064	21.51
298.15 K, x1 = 0.2953	17.55
298.15 K, x1 = 0.3982	13.71
298.15 K, x1 = 0.4518	12.06
298.15 K, x1 = 0.5018	10.7
298.15 K, x1 = 0.5494	9.463
298.15 K, x1 = 0.5998	8.336
298.15 K, x1 = 0.6966	6.451
298.15 K, x1 = 0.7997	4.971
298.15 K, x1 = 0.8916	3.873
298.15 K, x1 = 0.9411	3.369
303.15 K, x1 = 0.0501	26.39
303.15 K, x1 = 0.1015	23.75
303.15 K, x1 = 0.197	19.42
303.15 K, x1 = 0.3006	15.59
303.15 K, x1 = 0.4006	12.58
303.15 K, x1 = 0.4531	11.14
303.15 K, x1 = 0.4972	10.12
303.15 K, x1 = 0.5469	8.986
303.15 K, x1 = 0.6012	7.888
303.15 K, x1 = 0.6893	6.343
303.15 K, x1 = 0.803	4.661
303.15 K, x1 = 0.89	3.59
303.15 K, x1 = 0.9416	3.02

COC(=O)c1ccccc1 + CN(C)C=O
viscosity [mPa·s], 101.3 kPa
Conditions	x2 = 0.1213	x2 = 0.1914	x2 = 0.2976	x2 = 0.3961	x2 = 0.5284	x2 = 0.6218	x2 = 0.7468	x2 = 0.8028	x2 = 0.9311
298.15 K	1.74	1.644	1.507	1.388	1.239	1.141	1.02	0.969	0.86
303.15 K	1.622	1.536	1.413	1.306	1.169	1.078	0.963	0.915	0.81
308.15 K	1.524	1.447	1.334	1.235	1.107	1.022	0.913	0.867	0.764
313.15 K	1.305	1.252	1.173	1.1	1.003	0.936	0.848	0.809	0.721

CCCC[n+]1ccn(C)c1.N#C[C-](C#N)C#N + CCCCn1cc[n+](C)c1.O=S(=O)([N-]S(=O)(=O)C(F)(F)F)C(F)(F)F
Conditions	viscosity [mPa·s]
298.15 K, 100 kPa, x2 = 0.751	43.15

CCOC(=O)CCl + Cc1ccccc1
viscosity [mPa·s], 101.3 kPa
Conditions	x1 = 0.1004	x1 = 0.207	x1 = 0.299	x1 = 0.4013	x1 = 0.5048	x1 = 0.6083	x1 = 0.6963	x1 = 0.8022	x1 = 0.9006
298.15 K	0.594	0.631	0.671	0.714	0.768	0.823	0.878	0.945	1.02
303.15 K	0.561	0.594	0.63	0.669	0.719	0.77	0.818	0.881	0.947
308.15 K	0.528	0.559	0.59	0.626	0.671	0.718	0.758	0.817	0.873

CCOS(=O)(=O)[O-].CC[N+](CC)=C(N(C)C)N(C)C + CO
viscosity [mPa·s], 100 kPa
Conditions	x1 = 0.1	x1 = 0.1991	x1 = 0.298	x1 = 0.3949	x1 = 0.4982	x1 = 0.5999	x1 = 0.6953	x1 = 0.7999	x1 = 0.9002
293.15 K	1.785	4.501	9.381	18.38	32.98	53.59	80.2	115.6	153.4
298.15 K	1.634	4.072	8.2	15.58	27.24	42.8	62.36	87.46	112.3
303.15 K	1.504	3.661	7.163	13.38	22.82	34.85	49.55	67.85	86.71
308.15 K	1.389	3.307	6.417	11.63	19.37	28.79	40.16	53.89	67.59
313.15 K	1.287	3	5.724	10.18	16.65	24.17	33.08	43.49	53.73
318.15 K	1.195	2.734	4.994	8.991	14.45	20.55	27.69	35.64	43.24
323.15 K	1.113	2.5	4.58	7.999	12.64	17.68	23.46	29.74	35.49

CCOC(=O)CCl + CCCCCC
viscosity [mPa·s], 101.33 kPa
Conditions	x1 = 0.0977	x1 = 0.2029	x1 = 0.3028	x1 = 0.4001	x1 = 0.4982	x1 = 0.6039	x1 = 0.7027	x1 = 0.8032	x1 = 0.9022
298.15 K	0.342	0.375	0.416	0.465	0.524	0.602	0.683	0.787	0.923
303.15 K	0.326	0.357	0.396	0.441	0.495	0.566	0.641	0.739	0.861
308.15 K	0.309	0.339	0.377	0.417	0.466	0.53	0.6	0.69	0.8

CCOCCOCCOCC + ClCCl
298.15 K, 101 kPa
Conditions	viscosity [mPa·s]
x1 = 0.0052	0.409
x1 = 0.0103	0.413
x1 = 0.0277	0.449
x1 = 0.0559	0.492
x1 = 0.0751	0.516
x1 = 0.1056	0.576
x1 = 0.1326	0.622
x1 = 0.1807	0.699
x1 = 0.2427	0.784
x1 = 0.2846	0.843
x1 = 0.3028	0.87
x1 = 0.3207	0.893
x1 = 0.3629	0.948
x1 = 0.4227	1.006
x1 = 0.445	1.031
x1 = 0.5119	1.096
x1 = 0.5582	1.131
x1 = 0.583	1.148
x1 = 0.6108	1.172
x1 = 0.6567	1.192
x1 = 0.7048	1.217
x1 = 0.7501	1.233
x1 = 0.803	1.246
x1 = 0.8457	1.264
x1 = 0.9124	1.268
x1 = 0.9488	1.269
x1 = 0.9709	1.27

CCCCOCCO + C1CCCCC1
viscosity [mPa·s], 101 kPa
Conditions	298.15 K	308.15 K
x1 = 0.0557	0.95	0.79
x1 = 0.1501	1.046	0.866
x1 = 0.2504	1.162	0.958
x1 = 0.3543	1.3	1.066
x1 = 0.4488	1.443	1.178
x1 = 0.5025	1.532	1.248
x1 = 0.5493	1.616	1.313
x1 = 0.6485	1.813	1.465
x1 = 0.7494	2.043	1.642
x1 = 0.8511	2.311	1.848
x1 = 0.9556	2.631	2.091

C/C=C/C(=O)OCC + CCO
viscosity [mPa·s], 101 kPa
Conditions	x1 = 0.0991	x1 = 0.1985	x1 = 0.2994	x1 = 0.3961	x1 = 0.5006	x1 = 0.6	x1 = 0.6968	x1 = 0.7816	x1 = 0.8996
293.15 K	1.026	0.929	0.9257	0.9219	0.878	0.8293	0.8016	0.8351	0.8122
298.15 K	0.9334	0.8523	0.8465	0.8404	0.8061	0.7663	0.7402	0.7648	0.7535
303.15 K	0.8498	0.7812	0.7751	0.7739	0.7411	0.7061	0.6855	0.7052	0.7
313.15 K	0.7166	0.6615	0.6607	0.6588	0.6372	0.6091	0.5958	0.6134	0.6108
323.15 K	0.6156	0.5747	0.5702	0.5686	0.5537	0.5363	0.5284	0.5414	0.5401

COC(=O)c1ccccc1 + COCCO
viscosity [mPa·s], 101 kPa
Conditions	x2 = 0.0991	x2 = 0.2001	x2 = 0.3023	x2 = 0.3992	x2 = 0.4989	x2 = 0.5981	x2 = 0.699	x2 = 0.7991	x2 = 0.8983
298.15 K	1.735	1.689	1.686	1.675	1.646	1.675	1.668	1.699	1.693
303.15 K	1.571	1.523	1.524	1.511	1.478	1.508	1.5	1.525	1.522
308.15 K	1.427	1.385	1.378	1.366	1.34	1.362	1.356	1.375	1.372
